“And” between values parts separate entries of the source, which are not always exact repeats. Equal values may be shown once. Toxic doses and inconclusive results are not listed.
System: P388 leukemia ip, CD2F1 mice, survival T/C
Assay: NCI In Vivo Anticancer Drug Screen. Data for tumor model P388 Leukemia (intraperitoneal) in CD2F1 (CDF1) mice
Details: endpoint: median survival time, higher = longer survival
Summary of the method: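 Mice carrying the transplanted tumor received test compound or vehicle. Survival was recorded in each group, and the value is the treated-group measurement divided by that of the vehicle-treated control group.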

[1] = dose: 50.0 mg/kg/injection, schedule: Q01DX009 (ip), vehicle: Klucel (hydroxypropylcellulose) (HPC)
[2] = dose: 100.0 mg/kg/injection, schedule: Q01DX009 (ip), vehicle: Klucel (hydroxypropylcellulose) (HPC)
[3] = dose: 200.0 mg/kg/injection, schedule: Q01DX009 (ip), vehicle: Klucel (hydroxypropylcellulose) (HPC)
[4] = dose: 25.0 mg/kg/injection, schedule: Q01DX009 (ip), vehicle: saline with Tween-80
[5] = dose: 50.0 mg/kg/injection, schedule: Q01DX009 (ip), vehicle: saline with Tween-80
[6] = dose: 100.0 mg/kg/injection, schedule: Q01DX009 (ip), vehicle: saline with Tween-80
[7] = dose: 50.0 mg/kg/injection, schedule: Q01DX009 (ip), vehicle: saline
[8] = dose: 50.0 mg/kg/injection, schedule: Q01DX005 (ip), vehicle: saline with Tween-80
[9] = dose: 100.0 mg/kg/injection, schedule: Q01DX005 (ip), vehicle: saline with Tween-80
[10] = dose: 100.0 mg/kg/injection, schedule: Q01DX009 (ip), vehicle: saline
[11] = dose: 200.0 mg/kg/injection, schedule: Q01DX009 (ip), vehicle: saline

## CCOC(=O)N1CCN(CC(O)Cn2c(=O)c3c(nc(N4CCN(C(=O)OCC)CC4)n3C)n(C)c2=O)CC1 (stereo unspecified)
[1]
  T/C: 100 % of control
[2]
  T/C: 101 % of control
[3]
  T/C: 99 % of control

## CC1CCN(C)CC1
dose: 25.0 mg/kg/injection, schedule: Q01DX005 (ip), vehicle: saline
  T/C: 104 % of control
dose: 50.0 mg/kg/injection, schedule: Q01DX005 (ip), vehicle: saline
  T/C: 97 % of control
dose: 100.0 mg/kg/injection, schedule: Q01DX005 (ip), vehicle: saline
  T/C: 105 % of control

## CCCCCCCCCCC1(CCCC)C(=O)NC(=O)NC1=O
[4]
  T/C: 110 % of control
[5]
  T/C: 108 % of control
[6]
  T/C: 110 % of control

## CCCCCCCCCCCCC[N+]1([O-])CCCCC1
dose: 12.5 mg/kg/injection, schedule: Q01DX009 (ip), vehicle: saline
  T/C: 95 % of control
dose: 25.0 mg/kg/injection, schedule: Q01DX009 (ip), vehicle: saline
  T/C: 92 % of control
[7]
  T/C: 87 % of control and 89 % of control

## CC(=O)OC1CC2C(C)(C)C(=O)C=CC2(C)C2CCC3(C)C(c4ccoc4)CC(=O)C3C12C (stereo unspecified)
dose: 0.5 mg/kg/injection, schedule: Q01DX005 (ip), vehicle: Klucel (hydroxypropylcellulose) (HPC)
  T/C: 99 % of control
dose: 1.0 mg/kg/injection, schedule: Q01DX005 (ip), vehicle: Klucel (hydroxypropylcellulose) (HPC)
  T/C: 100 % of control
dose: 2.0 mg/kg/injection, schedule: Q01DX005 (ip), vehicle: Klucel (hydroxypropylcellulose) (HPC)
  T/C: 97 % of control
dose: 4.0 mg/kg/injection, schedule: Q01DX005 (ip), vehicle: Klucel (hydroxypropylcellulose) (HPC)
  T/C: 100 % of control
dose: 8.0 mg/kg/injection, schedule: Q01DX005 (ip), vehicle: Klucel (hydroxypropylcellulose) (HPC)
  T/C: 98 % of control

## Cc1cc(C2(c3cc(C)c(O)c(C)c3)c3ccccc3-c3ccccc32)cc(C)c1O
[1]
  T/C: 99 % of control
[2]
  T/C: 99 % of control
[3]
  T/C: 96 % of control

## Cc1ccc(C[n+]2ccc3c([N+](=O)[O-])cccc3c2)cc1
dose: 6.25 mg/kg/injection, schedule: Q01DX009 (ip), vehicle: saline with Tween-80
  T/C: 112 % of control
dose: 12.5 mg/kg/injection, schedule: Q01DX009 (ip), vehicle: saline with Tween-80
  T/C: 113 % of control
[4]
  T/C: 114 % of control

## O=C(NC1CCCCC1)C1C(=O)C(=O)N(C2CCCCC2)C1=O (stereo unspecified)
[8]
  T/C: 105 % of control
[9]
  T/C: 98 % of control

## Cc1ccc(/C=C/C(=O)C(C)(C)CN(C)CCN(C)C)cc1
dose: 60.0 mg/kg/injection, schedule: Q01DX005 (ip), vehicle: saline
  T/C: 103 % of control
dose: 120.0 mg/kg/injection, schedule: Q01DX005 (ip), vehicle: saline
  T/C: 98 % of control

## NNC(=O)OC12CC3CC(CC(C3)C1)C2
[4]
  T/C: 110 % of control
[5]
  T/C: 110 % of control

## O=C(Nc1cccc(Br)c1)Oc1cccc2cccnc12
dose: 60.0 mg/kg/injection, schedule: Q01DX005 (ip), vehicle: saline with Tween-80
  T/C: 105 % of control
dose: 120.0 mg/kg/injection, schedule: Q01DX005 (ip), vehicle: saline with Tween-80
  T/C: 94 % of control
dose: 240.0 mg/kg/injection, schedule: Q01DX005 (ip), vehicle: saline with Tween-80
  T/C: 90 % of control

## CC(C)(C)OC(=O)NCCCCC(NC(=O)OC(C)(C)C)C(=O)O (stereo unspecified)
[5]
  T/C: 102 % of control
[6]
  T/C: 101 % of control
dose: 200.0 mg/kg/injection, schedule: Q01DX009 (ip), vehicle: saline with Tween-80
  T/C: 92 % of control

## CCOC(=O)Cc1cc2cc(=O)[nH]cc2cc1C
dose: 12.5 mg/kg/injection, schedule: Q01DX009 (ip), vehicle: distilled water + Tween-80
  T/C: 94 % of control
dose: 25.0 mg/kg/injection, schedule: Q01DX009 (ip), vehicle: distilled water + Tween-80
  T/C: 93 % of control
dose: 50.0 mg/kg/injection, schedule: Q01DX009 (ip), vehicle: distilled water + Tween-80
  T/C: 90 % of control
dose: 200.0 mg/kg/injection, schedule: Q01DX009 (ip), vehicle: distilled water + Tween-80
  T/C: 87 % of control

## CCCCN(CCCC)CCCNc1nccc2ccccc12
dose: 6.25 mg/kg/injection, schedule: Q01DX005 (ip), vehicle: saline with Tween-80
  T/C: 106 % of control
dose: 12.5 mg/kg/injection, schedule: Q01DX005 (ip), vehicle: saline with Tween-80
  T/C: 103 % of control
dose: 25.0 mg/kg/injection, schedule: Q01DX005 (ip), vehicle: saline with Tween-80
  T/C: 106 % of control

## CC1CN=C(NS(=O)(=O)c2ccccc2)N1 (stereo unspecified)
[7]
  T/C: 101 % of control
[10]
  T/C: 93 % of control
[11]
  T/C: 92 % of control

## CCCCCCCCCCCC[N+]1(CC)CCCC1
dose: 1.56 mg/kg/injection, schedule: Q01DX009 (ip), vehicle: saline
  T/C: 100 % of control
dose: 3.12 mg/kg/injection, schedule: Q01DX009 (ip), vehicle: saline
  T/C: 98 % of control and 92 % of control
dose: 6.25 mg/kg/injection, schedule: Q01DX009 (ip), vehicle: saline
  T/C: 86 % of control

## CC(Br)(C(Br)c1ccccc1)[N+](=O)[O-] (stereo unspecified)
dose: 25.0 mg/kg/injection, schedule: Q01DX009 (ip), vehicle: Klucel (hydroxypropylcellulose) (HPC)
  T/C: 110 % of control
[1]
  T/C: 108 % of control

## O=C1OCC2C3C=CC(O3)C12 (stereo unspecified)
dose: 100.0 mg/kg/injection, schedule: Q04DX003 (ip), vehicle: saline
  T/C: 100 % of control
dose: 200.0 mg/kg/injection, schedule: Q04DX003 (ip), vehicle: saline
  T/C: 102 % of control

## COC(=O)N/N=C(/CC1(O)C(=O)Nc2ccccc21)c1ccc(Cl)cc1Cl (stereo unspecified)
[8]
  T/C: 99 % of control
[9]
  T/C: 93 % of control
dose: 200.0 mg/kg/injection, schedule: Q01DX005 (ip), vehicle: saline with Tween-80
  T/C: 92 % of control

## CN(CC#CCN(C)C1=NC(=O)CC1)C1=NC(=O)CC1
dose: 60.0 mg/kg/injection, schedule: Q01DX005 (ip), vehicle: Klucel (hydroxypropylcellulose) (HPC)
  T/C: 92 % of control
dose: 120.0 mg/kg/injection, schedule: Q01DX005 (ip), vehicle: Klucel (hydroxypropylcellulose) (HPC)
  T/C: 94 % of control
dose: 240.0 mg/kg/injection, schedule: Q01DX005 (ip), vehicle: Klucel (hydroxypropylcellulose) (HPC)
  T/C: 100 % of control

## O=C1CCC(CCl)(C(=O)O)O1 (stereo unspecified)
[7]
  T/C: 106 % of control
[10]
  T/C: 106 % of control
[11]
  T/C: 91 % of control

Reference: PubChem BioAssay AID330 (DTP/NCI, 2004)
